Measured values as given in patent US12565522B2, “Micropeptide HMMW and application thereof” (NANJING ANJI BIOTECHNOLOGY CO., LTD., priority 2019, dated 2026).
No end group written: not given here.

Columns and labels:
[1] = test system: TE13 cells of esophageal squamous cell carcinoma; format: in vivo, BALB/c nude mice; details: for in vivo tumor growth inhibition rate: mouse, 15 mg/kg
Protocol: (§1) • (1) Massively culture SCC4 cells of head and neck cancer, SW579 cells of thyroid cancer, A549 cells of lung cancer, TE13 cells of esophageal squamous cell carcinoma, MGC803 cells of stomach cancer, MDA-MB-231 cells of breast cancer, UOK262 cells of kidney cancer, and A431 cells of skin cancer of human, digest with a 0.25% pancreatin solution, centrifuge the cell suspension at 1,000 rpm for 5 min after termination of digestion, re-suspend the cells by serum-free DMEM culture medium, then count the cells and adjust cell concentration to 5×10^7 cells/ml; • (2) Inoculate each nude mouse (female mice at the age of 4-6 weeks and with a weight of 14-16 g were ordered and adaptively reared for 1 week in an SPF animal breeding room) with 100 μl of the cell suspension of the corresponding group in the left armpit, and the number of cells injected is 5×10^6; • (3) After inoculation, the tumor growth at the inoculation sites of nude mice was closely observed. On the 7th day after inoculation, white scabs appeared at the inoculation sites, which could move subcutaneously after being touched. With the growth of tumor tissue, hard tumor masses were gradually formed at the inoculation sites. On about the 14th day, the average volume of the tumor tissue reached 100 mm^3. BALB/c nude mice were randomly divided into three groups (the normal saline group was a blank control group, the micropeptide HMMW at a dose of 10 mg/kg was a low-dose group, and the micropeptide HMMW at a dose of 15 mg/kg was a high-dose group), 6 mice in each group, and the animals weighed 16-18 g at the beginning of administration; • (4) The volume of the transplanted tumor was measured and recorded every two days. The calculation formula of tumor volume (TV) is shown below: TV=0.5×a×b^2 • where, a is the length of the transplanted tumor (mm), and b is the width of the transplanted tumor (mm). • (1) Massively culture SCC4 cells of head and neck cancer, SW579 cells of thyroid cancer, A549 cells of lung cancer, TE13 cells of esophageal squamous cell carcinoma, MGC803 cells of stomach cancer, MDA-MB-231 cells of breast cancer, UOK262 cells of kidney cancer, and A431 cells of skin cancer of human, digest with a 0.25% pancreatin solution, centrifuge the cell suspension at 1,000 rpm for 5 min after termination of digestion, re-suspend the cells by serum-free DMEM culture medium, then count the cells and adjust cell concentration to 5×10^7 cells/ml; • (2) Inoculate each nude mouse (female mice at the age of 4-6 weeks and with a weight of 14-16 g were ordered and adaptively reared for 1 week in an SPF animal breeding room) with 100 μl of the cell suspension of the corresponding group in the left armpit, and the number of cells injected is 5×10^6; • (3) After inoculation, the tumor growth at the inoculation sites of nude mice was closely observed. On the 7th day after inoculation, white scabs appeared at the inoculation sites, which could move subcutaneously after being touched. With the growth of tumor tissue, hard tumor masses were gradually formed at the inoculation sites. On about the 14th day, the average volume of the tumor tissue reached 100 mm^3. BALB/c nude mice were randomly divided into three groups (the normal saline group was a blank control group, and each of micropeptides HMMW I to IX formed a group at a dose of 15 mg/kg), 6 mice in each group, and the animals weighed 16-18 g at the beginning of administration; • (4) The volume of the transplanted tumor was measured and recorded every two days. The calculation formula of tumor volume (TV) is shown below: TV=0.5×a×b^2 • where, a is the length of the transplanted tumor (mm), and b is the width of the transplanted tumor (mm).

[2] = test system: MGC803 cells of stomach cancer; format: in vivo, BALB/c nude mice; details: for in vivo tumor growth inhibition rate: mouse, 15 mg/kg
Protocol: as §1

[3] = test system: A431 cells of skin cancer; format: in vivo, BALB/c nude mice; details: for in vivo tumor growth inhibition rate: mouse, 15 mg/kg
Protocol: as §1

[4] = test system: A549 cells of lung cancer; format: in vivo, BALB/c nude mice; details: for in vivo tumor growth inhibition rate: mouse, 15 mg/kg
Protocol: as §1

[5] = test system: SCC4 cells of head and neck cancer; format: in vivo, BALB/c nude mice; details: for in vivo tumor growth inhibition rate: mouse, 15 mg/kg
Protocol: as §1

[6] = test system: SW579 cells of thyroid cancer; format: in vivo, BALB/c nude mice; details: for in vivo tumor growth inhibition rate: mouse, 15 mg/kg
Protocol: as §1

[7] = test system: MDA-MB-231 cells of breast cancer; format: in vivo, BALB/c nude mice; details: for in vivo tumor growth inhibition rate: mouse, 15 mg/kg
Protocol: as §1

[8] = test system: UOK262 cells of kidney cancer; format: in vivo, BALB/c nude mice; details: for in vivo tumor growth inhibition rate: mouse, 15 mg/kg
Protocol: as §1

[9] = test system: TE13 cells of esophageal squamous cell carcinoma; test: transwell migration test; format: cell-based, human; details: 24 h
Protocol: Inoculate SCC4 cells of head and neck cancer, SW579 cells of thyroid cancer, A549 cells of lung cancer, TE13 cells of esophageal squamous cell carcinoma, MGC803 cells of stomach cancer, MDA-MB-231 cells of breast cancer, UOK262 cells of kidney cancer, and A431 cells of skin cancer of human to transwell cells, 100 μL per well, and meanwhile add micropeptides HMMW I to IX at different doses to every cell. Add 0.6 mL of complete medium containing 10% FBS to the transwell cells to stimulate cell migration, and culture in 5% CO2 at 37 DEG C. for 24 h. Discard the medium in the wells, fix with 90% alcohol at room temperature for 30 min, stain with 0.1% crystal violet at room temperature for 10 min, rinse with clear water, gently wipe off the non-migrated cells in the upper layer with a cotton swab, observe under a microscope and select four fields of view to take pictures and count. Calculate the migration inhibition rate (MIR) of the cells according to the following formula: […]
The test was repeated independently three times. Mean±SD was calculated based on the test results. Statistical t test was done. Here, “the test was repeated independently three times” means that every dose of any type of cells was tested repeatedly three times, and then the above formula was used to calculate the number of migrated cells (Mean±SD). Value P was used to express statistical difference. The statistical significance of the results is a method for estimating how true the results are (the totality can be represented), *P<0.05 means significant difference, and **P<0.01 means very significant difference.

Row | Substance | in vivo tumor growth inhibition rate [1] [%] | in vivo tumor growth inhibition rate [2] [%] | in vivo tumor growth inhibition rate [3] [%] | in vivo tumor growth inhibition rate [4] [%] | in vivo tumor growth inhibition rate [5] [%] | in vivo tumor growth inhibition rate [6] [%] | in vivo tumor growth inhibition rate [7] [%] | in vivo tumor growth inhibition rate [8] [%] | migration inhibition rate ([9]; dose 1 μM) [%] | migration inhibition rate ([9]; dose 4 μM) [%] | migration inhibition rate ([9]; dose 16 μM) [%] | inhibition of tumorigenicity in vivo ([1]; TE13, nude mice, 10 and 15 mg/kg, vs normal saline, dose-dependent (Embodiment 6)) | inhibition of tumorigenicity in vivo ([2]; MGC803, nude mice, 10 and 15 mg/kg, vs normal saline, dose-dependent (Embodiment 6)) | inhibition of tumorigenicity in vivo ([3]; A431, nude mice, 10 and 15 mg/kg, vs normal saline, dose-dependent (Embodiment 6)) | inhibition of tumorigenicity in vivo ([4]; A549, nude mice, 10 and 15 mg/kg, vs normal saline, dose-dependent (Embodiment 6)) | inhibition of tumorigenicity in vivo ([5]; SCC4, nude mice, 10 and 15 mg/kg, vs normal saline, dose-dependent (Embodiment 6)) | inhibition of tumorigenicity in vivo ([6]; SW579, nude mice, 10 and 15 mg/kg, vs normal saline, dose-dependent (Embodiment 6)) | inhibition of tumorigenicity in vivo ([7]; MDA-MB-231, nude mice, 10 and 15 mg/kg, vs normal saline, dose-dependent (Embodiment 6)) | inhibition of tumorigenicity in vivo ([8]; UOK262, nude mice, 10 and 15 mg/kg, vs normal saline, dose-dependent (Embodiment 6))
1 | MERAGVPGFSPRRSSVEAKMQSTSCSVRKSSTVTAWPAVVLLLSWGQRDEE-OH [HMMW-VI] | 65.56 | 66.51 | 68.25 | 65.27 | 73.54 | 66.79 | 71.18 | 65.19 | 21.76 | 40.21 | 66.32 | – | – | – | – | – | – | – | –
2 | MGSTGVPGFSPRRSSVEAKMQSTSCSVRKSSTVTAWPAVVLLLSWGQRRGG-OH [HMMW-VII] | 71.23 | 65.11 | 67.70 | 69.13 | 72.75 | 68.63 | 68.91 | 64.37 | 23.64 | 41.21 | 63.30 | – | – | – | – | – | – | – | –
3 | MERAGVPGFSPRRSSVEAKMQSTSCSVRKSSTVTAWPAVVLLLSWGQRRGG-OH [HMMW-I] | 65.43 | 68.12 | 62.74 | 69.23 | 72.56 | 66.63 | 67.97 | 63.80 | 23.76 | 42.29 | 68.32 | significantly inhibit | significantly inhibit | significantly inhibit | significantly inhibit | significantly inhibit | significantly inhibit | significantly inhibit | significantly inhibit
4 | MGRAGVPGFSPRRSSVEAKMQSTSCSVRKSSTVTAWPAVVLLLSWGQRRGG-OH [HMMW-IX] | 65.31 | 68.61 | 64.33 | 69.09 | 71.84 | 67.89 | 69.36 | 65.23 | 21.76 | 40.29 | 65.32 | – | – | – | – | – | – | – | –
5 | MERAGVPGFSPRRSSVEAKMQSTSCSVRKSSTVTAWPAVVLLLSWGKDDEE-OH [HMMW-IV] | 61.41 | 67.52 | 71.71 | 68.25 | 71.72 | 72.13 | 65.93 | 64.70 | 22.76 | 41.29 | 65.32 | – | – | – | – | – | – | – | –
6 | MERAGVPGFSPRRSSVEAKMQSTSCSVRKSSTVTAWPAVVLLLHTSKDDEE-OH [HMMW-II] | 62.86 | 70.08 | 71.22 | 71.32 | 66.24 | 64.76 | 68.95 | 63.12 | 22.74 | 40.23 | 65.31 | – | – | – | – | – | – | – | –
7 | MGSTYNPGFSPRRSSVEAKMQSTSCSVRKSSTVTAWPAVVLLLSWGQRRGG-OH [HMMW-V] | 63.46 | 71.04 | 69.41 | 71.12 | 67.14 | 70.78 | 67.75 | 64.16 | 23.74 | 42.23 | 64.31 | – | – | – | – | – | – | – | –
8 | MGSTYNKRHSPRRSSVEAKMQSTSCSVRKSSTVTAWPAVVLLLSWGQRRGG-OH [HMMW-III] | 66.31 | 69.62 | 69.54 | 73.08 | 70.84 | 71.89 | 69.49 | 61.67 | 22.76 | 41.29 | 65.32 | – | – | – | – | – | – | – | –
9 | MERAGVPGFSPRRSSVEAKMQSTSCSVRKSSTVTAWPAVVLLLSWGQRRGE-OH [HMMW-VIII] | 68.81 | 69.38 | 68.21 | 69.30 | 68.24 | 71.76 | 69.82 | 65.15 | 23.73 | 42.23 | 63.31 | – | – | – | – | – | – | – | –
